Measurements reported in patent publication US12398121B2 (Nuvation Bio Inc., priority 2018, dated 2025).

What was measured:
[1] = molecular target: T1, AR in LNCaP cytosol (Homo sapiens, UniProt P10275, T878A); experiment: AR binding assay (3H-methyltrienolone displacement)
T1 construct: endogenous in cells; host or cells: LNCaP cytosol
T1 sequence (P10275 1-920 T878A): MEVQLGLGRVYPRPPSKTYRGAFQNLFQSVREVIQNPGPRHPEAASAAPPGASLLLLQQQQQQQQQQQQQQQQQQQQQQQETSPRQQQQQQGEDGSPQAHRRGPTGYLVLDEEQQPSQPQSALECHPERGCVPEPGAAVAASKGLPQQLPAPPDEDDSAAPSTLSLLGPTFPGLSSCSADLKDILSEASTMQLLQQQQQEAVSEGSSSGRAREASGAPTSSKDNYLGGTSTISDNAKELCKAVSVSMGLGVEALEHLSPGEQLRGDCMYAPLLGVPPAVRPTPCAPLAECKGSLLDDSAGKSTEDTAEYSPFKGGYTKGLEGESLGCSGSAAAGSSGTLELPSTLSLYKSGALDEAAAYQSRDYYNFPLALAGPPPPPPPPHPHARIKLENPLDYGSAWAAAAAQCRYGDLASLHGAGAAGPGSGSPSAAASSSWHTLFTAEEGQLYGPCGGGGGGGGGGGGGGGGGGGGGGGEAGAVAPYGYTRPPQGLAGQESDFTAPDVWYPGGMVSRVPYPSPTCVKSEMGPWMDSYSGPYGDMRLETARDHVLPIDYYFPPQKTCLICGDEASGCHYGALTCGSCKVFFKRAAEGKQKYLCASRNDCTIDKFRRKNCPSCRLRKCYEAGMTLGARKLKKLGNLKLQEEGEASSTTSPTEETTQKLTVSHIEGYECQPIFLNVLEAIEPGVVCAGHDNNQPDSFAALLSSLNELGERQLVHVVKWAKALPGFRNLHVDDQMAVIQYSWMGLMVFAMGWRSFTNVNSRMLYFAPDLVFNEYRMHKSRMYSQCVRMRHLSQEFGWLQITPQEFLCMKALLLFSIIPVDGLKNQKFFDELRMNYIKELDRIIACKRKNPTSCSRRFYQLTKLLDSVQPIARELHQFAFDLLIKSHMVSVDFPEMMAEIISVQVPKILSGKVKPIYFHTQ
Method: The following methods are for evaluating the in vitro biology properties of the test articles. • a. RBC HotSpot Poly(ADP-ribose) Polymerases 1 (PARP1) and Poly(ADP-ribose) Polymerases 2 (PARP2) Assays: The assay principle is radioisotope-based filter binding assay where incorporation of radioisotope-labeled NAD^+ into the substrate captured on filter is detected after washout free NAD^+. Data were analyzed using Excel and GraphPad Prism software for IC50 curve fits. Each assay was conducted with PJ34 as a positive control. • i. PARP1 assay: Human recombinant PARP1 at a final concentration of 2.5 nM was combined with histone H4 (20 μM) and test articles at various concentrations in reaction buffer (50 mM Tris-HCL, pH 8.0, 50 mM NaCl, 10 mM MgCl2, 1 mM DTT, 1% DMSO, and 20 μg/mL activated DNA). The solution was inoculated for 20 min at room temperature and the reaction initiated by adding [adenylate-^32P]-Nicotinamide Adenine Dinucleotide, ^32P-NAD^+ at a final concentration of 10 μM. After incubation for 2 hour at room temperature, the reaction mixture was filtered and washed with 0.75% phosphoric acid for radioactivity detection. • ii. PARP2 assay: Human recombinant PARP2 at a final concentration of 2.5 nM was combined with histone H3 (20 μM) and test articles at various concentrations in reaction buffer (50 mM Tris-HCL, pH 8.0, 50 mM NaCl, 10 mM MgCl2, 1 mM DTT, 1% DMSO, and 20 μg/mL activated DNA). The solution was inoculated for 20 min at room temperature and the reaction was initiated by adding [adenylate-^32P]-Nicotinamide Adenine Dinucleotide, ^32P-NAD^+ at a final concentration of 10 μM. After incubation for 2 hour at room temperature, the reaction mixture was filtered and washed with 0.75% phosphoric acid for radioactivity detection. • b. AR binding assay: AR in LNCaP cytosol was used for determining the binding affinity of test articles and the reference compound—progesterone (Sigma, Cat: E2785, St. Louis, MO). IC50s were determined using 8 concentrations/compound. Cytosol was plated at 200 μg/well (100 μL) into a 96-well conical polypropylene plate (Agilent, Cat: 5042-1385, Santa Clara, CA) and mixed with 3 μL of test compound. After adding 100 μL of ^3H-methyltrienolone (PerkinElmer, Cat: NET590250UC, San Jose, CA), the plate was sealed and shaken at 300 rpm at 4° C. for 24 hours. Post incubation, 100 μL of radioligand adsorption buffer containing 10 mM Tris-HCl, pH 7.4; 1.5 mM EDTA; 1 mM DTT; 0.25% charcoal; 0.0025% dextran was added to individual well. Plate was shaken for 15 min at 4′C followed by centrifugation at 3000 rpm for 30 min at 4° C. 150 μL of supernatant was transferred into scint-tube (PerkinElmer, Cat: 6000192) and mixed with 2 mL of Ultima Gold Cocktail (PerkinElmer, Cat: 6013329). Radioactivity was counted using a TriCarb 2910 TR scintillation counter (PerkinElmer). Inhibition of the radioactivity by test articles were calculated using the equation below: % Inhibition=(1−(Assay well−Average_LC)/(Average_HC−Average_LC))×100%.
IC50 values were calculated and graphed using the model “log(inhibitor) vs. response—Variable slope” included in GraphPad Prism 5 (San Diego, CA). The Ki values were further calculated using the equation below where [L] was the radioligand concentration (1 nM) using in this study. Kd value was 0.332 nM. Ki=IC50/(1+[L]/Kd) c. AR transactivation: Human AR cloned into a CMV vector backbone was used for the transactivation study. HEK-293 cells were plated at 80,000 cells per well of a 24 well plate in DME+5% csFBS. Twenty four hours later, the cells were transfected using Lipofectamine (Invitrogen, Carlsbad, CA) with 0.25 μg GRE-LUC, 0.01 μg CMV-LUC (renilla luciferase) and 25 ng of the AR in OPTIMEM medium. The cells were treated 24 hrs after transfection with various ligands (10^−12 to 10^−5 M final concentrations) and luciferase assay were performed 48 hours after transfection. […]

[2] = molecular target: T2, DNA-PK (Homo sapiens, UniProt P78527); experiment: DNA-PK inhibition (Reaction Biology HotSpot Kinase Assay, radioisotope filter binding); assay type: biochemical; settings: 5 nM DNA-PK, 20 μM DNA-PKtide, 33P-ATP
T2 construct: purchased Invitrogen, Carlsbad, CA PR9107A

Row | Compound | Ki [1] [nM] | IC50 [2] [nM]
1 | CCN1C(=O)CN(CCCCCCNC(=O)c2ccc(N3C(=S)N(c4ccc(C#N)c(C(F)(F)F)c4)C(=O)C3(C)C)cc2F)c2ncc(-c3ccc(-c4nc[nH]n4)nc3C)nc21 [Compound 3.2, 4-(3-(4-cyano-3-(trifluoromethyl)phenyl)-5,5-dimethyl-4-oxo-2-thioxoimidazolidin-1-yl)-N-(6-(4-ethyl-6-(2-methyl-6-(1H-1,2,4-triazol-3-yl)pyridin-3-yl)-3-oxo-3,4-dihydropyrazino[2,3-b]pyrazin-1(2H)-yl)hexyl)-2-fluorobenzamide] | 19 | > 10000
2 | CCN1C(=O)CNc2ncc(-c3ccc(-c4ncn(CCCCCCNC(=O)c5ccc(N6C(=S)N(c7ccc(C#N)c(C(F)(F)F)c7)C(=O)C6(C)C)cc5F)n4)nc3C)nc21 [Compound 3.1, 4-(3-(4-cyano-3-(trifluoromethyl)phenyl)-5,5-dimethyl-4-oxo-2-thioxoimidazolidin-1-yl)-N-(6-(3-(5-(8-ethyl-7-oxo-5,6,7,8-tetrahydropyrazino[2,3-b]pyrazin-2-yl)-6-methylpyridin-2-yl)-1H-1,2,4-triazol-1-yl)hexyl)-2-fluorobenzamide] | 21 | > 10000
